Results published in the supplement of paper PMC10307832.

What was measured:
Assay in all cases: relative viability (nuclei count vs DMSO), 5 days (fraction); higher = more cells survive
JZL-184 + Linsitinib = compound: C1CN(CCC1C(C2=CC3=C(C=C2)OCO3)(C4=CC5=C(C=C4)OCO5)O)C(=O)OC6=CC=C(C=C6)[N+](=O)[O-] [JZL-184] + C[C@]1(O)C[C@@H](c2nc(-c3ccc4ccc(-c5ccccc5)nc4c3)c3c(N)nccn32)C1 [Linsitinib] (partner 1 µM)
Procedure, shortened: (§1)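 Medians of duplicate plates are given as relative viability. That measure is the nuclei count in treated wells divided by the count in vehicle wells. Counts were taken on 4× images of lung cancer cell lines in 1536-well plates, 5 days after pin-tool dosing the day after seeding with one drug alone or a fixed anchor-drug dose plus five library-drug doses (not always all listed) in √10 steps.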

JZL-184 + Vorinostat = compound: C1CN(CCC1C(C2=CC3=C(C=C2)OCO3)(C4=CC5=C(C=C4)OCO5)O)C(=O)OC6=CC=C(C=C6)[N+](=O)[O-] [JZL-184] + O=C(CCCCCCC(=O)Nc1ccccc1)NO [Vorinostat] (partner 1 µM)
Procedure, shortened: as §1

JZL-184 + Luminespib = compound: C1CN(CCC1C(C2=CC3=C(C=C2)OCO3)(C4=CC5=C(C=C4)OCO5)O)C(=O)OC6=CC=C(C=C6)[N+](=O)[O-] [JZL-184] + CCNC(=O)c1noc(-c2cc(C(C)C)c(O)cc2O)c1-c1ccc(CN2CCOCC2)cc1 [Luminespib] (partner 0.01 µM)
Procedure, shortened: as §1

JZL-184 + Crizotinib = compound: C1CN(CCC1C(C2=CC3=C(C=C2)OCO3)(C4=CC5=C(C=C4)OCO5)O)C(=O)OC6=CC=C(C=C6)[N+](=O)[O-] [JZL-184] + C[C@@H](Oc1cc(-c2cnn(C3CCNCC3)c2)cnc1N)c1c(Cl)ccc(F)c1Cl [Crizotinib] (partner 1 µM)
Procedure, shortened: as §1

JZL-184 = compound: C1CN(CCC1C(C2=CC3=C(C=C2)OCO3)(C4=CC5=C(C=C4)OCO5)O)C(=O)OC6=CC=C(C=C6)[N+](=O)[O-] [JZL-184]
Procedure, shortened: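 Viability is treated-well nuclei as a fraction of vehicle-well nuclei, reported as the median across plates. Before counting, lung cancer cell lines were kept overnight at 37 °C in 1536-well plates, pinned with five √10-spaced library-drug doses on vehicle-anchored plates, and left 5 days without medium change, then fixed, permeabilised and Hoechst-stained in one step, imaged at 4× and counted by MetaXpress. A plate passed only if control CV was below 25% and at least one doubling occurred.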

| Cell Line | relative viability (JZL-184 + Linsitinib; first compound 0.04 µM) | relative viability (JZL-184 + Linsitinib; first compound 0.4 µM) | relative viability (JZL-184 + Linsitinib; first compound 1.265 µM) | relative viability (JZL-184 + Linsitinib; first compound 4 µM) | relative viability (JZL-184 + Vorinostat; first compound 0.04 µM) | relative viability (JZL-184 + Vorinostat; first compound 0.4 µM) | relative viability (JZL-184 + Vorinostat; first compound 1.265 µM) | relative viability (JZL-184 + Vorinostat; first compound 4 µM) | relative viability (JZL-184 + Luminespib; first compound 0.04 µM) | relative viability (JZL-184 + Luminespib; first compound 0.4 µM) | relative viability (JZL-184 + Luminespib; first compound 1.265 µM) | relative viability (JZL-184 + Luminespib; first compound 4 µM) | relative viability (JZL-184 + Crizotinib; first compound 0.04 µM) | relative viability (JZL-184 + Crizotinib; first compound 0.4 µM) | relative viability (JZL-184 + Crizotinib; first compound 1.265 µM) | relative viability (JZL-184 + Crizotinib; first compound 4 µM) | relative viability (JZL-184; 0.04 µM) | relative viability (JZL-184; 0.4 µM) | relative viability (JZL-184; 1.265 µM) | relative viability (JZL-184; 4 µM) |
| --- | --- | --- | --- | --- | --- | --- | --- | --- | --- | --- | --- | --- | --- | --- | --- | --- | --- | --- | --- | --- |
| NCI-H2126 | 0.644 | 0.673 | 0.701 | 0.693 | 0.753 | 0.698 | 0.76 | 0.737 | 1.06 | 0.876 | 0.922 | 0.92 | 1.04 | 1.02 | 1.06 | 1.02 | 0.996 | 0.974 | 1.03 | 0.988 |
| NCI-H2228 | 0.642 | 0.892 | 0.636 | 0.616 | 0.898 | 0.572 | 0.639 | 0.703 | 0.142 | 0.1 | 0.168 | 0.122 | 0.543 | 0.442 | 0.517 | 0.511 | 1.16 | 0.945 | 1.04 | 0.918 |
| NCI-H2347 | 0.98 | 0.953 | 0.926 | 0.946 |  | 0.494 | 0.661 | 0.616 | 0.321 | 0.553 | 0.497 | 0.587 | 0.968 | 0.835 | 0.694 | 0.72 | 0.865 | 0.996 | 1.06 | 0.989 |
| NCI-H2405 | 0.806 | 0.895 | 1.09 | 0.986 | 1.15 | 0.83 | 1.3 | 0.968 | 0.598 | 0.764 | 0.796 | 0.734 | 0.87 | 0.857 | 0.968 | 0.811 | 1 | 0.982 | 1.11 | 1 |
| NCI-H3122 | 1.03 | 0.949 | 1.03 | 0.971 | 1.05 | 0.988 | 0.965 | 1.06 | 0.0989 | 0.0869 | 0.0901 | 0.11 | 0.27 | 0.237 | 0.282 | 0.323 | 1.01 | 0.955 | 1.01 | 0.98 |
| PC-3 [JPC-3] | 0.955 | 0.936 | 0.973 | 0.905 | 0.873 | 0.761 | 1.14 | 0.736 | 0.793 | 0.721 | 0.811 | 0.615 | 1.02 | 1.03 | 1.01 | 0.974 | 1.04 | 0.978 | 1.1 | 1.01 |
